Measured values from ChEMBL document CHEMBL5356961 (J Med Chem, 2023).
Activity calls are given as the source filed them. The calls are words filed in the database; no cut-off is given here.

Key:
[1] = target: Nicotinamide phosphoribosyltransferase (Homo sapiens, UniProt P43490); test: Inhibition of recombinant human NAMPT preincubated for 5 mins followed by NAM addition measured for 15 mins by fluorescence based assay
[2] = Antitumor activity against […] Hepa1-6 cells assessed as inhibition of cell viability incubated for 72 hrs by SRB assay; type: functional, cell-based; details: Mus musculus, Hepa1-6, 72 h
[3] = test system: LN-18; test: Antitumor activity against human LN-18 cells assessed as inhibition of cell viability incubated for 72 hrs by SRB assay; type: functional, cell-based; details: LN-18, 72 h
[4] = test system: B16; test: Antitumor activity against mouse B16 cells assessed as inhibition of cell viability incubated for 72 hrs by SRB assay; type: functional, cell-based; details: B16, 72 h
[5] = test system: CT26; test: Antitumor activity against mouse CT26 cells assessed as inhibition of cell viability incubated for 72 hrs by SRB assay; type: functional, cell-based; details: CT26, 72 h
[6] = test system: CT26; test: Induction of DNA damage in mouse CT26 cells assessed as increase in gammaH2AX level at 0.1 to 10 uM measured after 12 hrs by immunoblot analysis; type: functional, cell-based; details: dose 0.1-10 µM
[7] = test system: CT26; test: Induction of DNA damage in mouse CT26 cells assessed as increase in gammaH2AX level at 0.1 to 50 uM incubated for 6 hrs by immunoblot analysis; type: functional, cell-based; details: dose 0.1-50 µM
[8] = test system: CT26; test: Antitumor activity against mouse CT26 cells assessed as decrease in intracellular NAD level upto 10 uM measured for 6 hrs by absorbance based assay; type: functional, cell-based
[9] = test system: A549; test: Antitumor activity against human A549 cells assessed as inhibition of cell viability at 20 to 80 uM incubated for 48 hrs by CCK8 assay; type: functional, cell-based; details: dose 20-80 µM
[10] = test system: NCI-H1299; test: Antitumor activity against human NCI-H1299 cells assessed as inhibition of cell viability at 20 to 80 uM incubated for 48 hrs by CCK8 assay; type: functional, cell-based; details: dose 20-80 µM
[11] = test system: B16; test: Induction of DNA damage in mouse B16 cells assessed as increase in gammaH2AX level upto 100 nM incubated for 24 hrs in presence of NMN by immunofluorescence staining based analysis; type: functional, cell-based
[12] = test system: HCT-116; test: Antitumor activity against human HCT-116 cells assessed as inhibition of cell viability at 20 to 80 uM incubated for 48 hrs by CCK8 assay; type: functional, cell-based; details: dose 20-80 µM
[13] = test system: MDA-MB-231; test: Antitumor activity against human MDA-MB-231 cells assessed as inhibition of cell viability at 20 to 80 uM incubated for 48 hrs by CCK8 assay; type: functional, cell-based; details: dose 20-80 µM
[14] = Toxicity in C57BL/6 mouse model allografted with mouse B16 cells assessed as body weight loss at 2 mg/kg/day, ip for approximately 10 days; type: organism-based; details: in vivo, 240 h, time 10 day
[15] = Toxicity in Balb/c mouse model allografted with mouse CT26 cells assessed as body weight loss at 2 mg/kg/day, ip for approximately 10 days; type: organism-based; details: in vivo, 240 h, time 10 day
[16] = test system: B16; test: Induction of DNA damage in mouse B16 cells assessed as increase in gammaH2AX level at 1 uM incubated for 24 hrs by immunoblot analysis; type: functional, cell-based
[17] = test system: CT26; test: Antitumor activity against mouse CT26 cells allografted in Balb/c mouse model at 2 mg/kg/day, ip for approximately 10 days; type: functional, organism-based; details: time 10.0 day
[18] = test system: B16; test: Induction of DNA damage in mouse B16 cells assessed as increase in gammaH2AX level at 0.1 uM incubated for 24 hrs by immunoblot analysis; type: functional, cell-based
[19] = test system: B16; test: Antitumor activity against mouse B16 cells assessed as decrease in intracellular NAD level at 20 nM measured after 12 to 24 hrs in presence of olaparib by absorbance based assay; type: functional, cell-based; details: time 12-24 hrs
[20] = test system: B16; test: Induction of DNA damage in mouse B16 cells assessed as increase in gammaH2AX level at 100 nM incubated for 24 hrs by immunofluorescence staining based analysis; type: functional, cell-based
[21] = test system: B16; test: Induction of DNA damage in mouse B16 cells assessed as increase in gammaH2AX level at 0.1 uM incubated for 24 hrs by immunofluorescence staining based analysis; type: functional, cell-based
[22] = test system: B16; test: Antitumor activity against mouse B16 cells assessed as decrease in intracellular NAD level at 20 to 100 nM measured after 12 to 24 hrs by absorbance based assay; type: functional, cell-based; details: dose 20-100 nM, time 12-24 hrs
[23] = test system: B16; test: Induction of DNA damage in mouse B16 cells assessed as increase in gammaH2AX level at 20 nM incubated for 24 hrs in presence of olaparib by immunofluorescence staining based analysis; type: functional, cell-based
[24] = test system: LN-18; test: Antitumor activity against human LN-18 cells assessed as inhibition of cell viability at 6 nM incubated for 72 hrs in presence of NNMT inhibitor by crystal violet staining based analysis; type: functional
[25] = test system: LN-18; test: Antitumor activity against human LN-18 cells assessed as inhibition of cell viability at 6 nM incubated for 72 hrs in presence of sirtuins inhibitor by crystal violet staining based analysis; type: functional
[26] = test system: Calf thymus DNA; test: Binding affinity to calf thymus DNA assessed as decrease in fluorescence intensity at 100 to 200 uM by […] displacement assay; type: nucleic-acid assay; details: Bos taurus; dose 100-200 µM
[27] = test system: HepG2; test: Antitumor activity against human HepG2 cells assessed as decrease in intracellular NAD level measured for 24 hrs by absorbance based assay; type: functional, cell-based; details: dose 0.032-100 µM
[28] = Stability in mouse microsomes assessed as half life; type: ADME, Microsome
[29] = test system: HepG2; test: Antitumor activity against human HepG2 cells assessed as inhibition of cell viability at 20 to 80 uM incubated for 48 hrs by CCK8 assay; type: functional, cell-based; details: dose 20-80 µM
[30] = test system: B16; test: Induction of DNA damage in mouse B16 cells assessed as increase in gammaH2AX level at 100 nM by immunofluorescence staining based analysis; type: functional, cell-based; details: time 2-24 hrs
[31] = test system: PANC-1; test: Antitumor activity against human PANC-1 cells assessed as inhibition of cell viability at 20 to 80 uM incubated for 48 hrs by CCK8 assay; type: functional, cell-based; details: dose 20-80 µM
[32] = target: Nicotinamide phosphoribosyltransferase (Mus musculus) (UniProt Q99KQ4); test: Binding affinity to NAMPT in mouse B16 cells assessed as increase in thermal stabilization incubated for 3 hrs followed by heating at 46 to 71 degreeC for 3 mins by CETSA assay; type: cell-based; details: time 183.0 min
[33] = test system: CT26; test: Induction of apoptosis in mouse CT26 cells incubated for 48 hrs by Annexin V-FITC/PI staining based flow cytometry; type: functional, cell-based; details: dose 10-40 nM

Chain of Nicotinamide phosphoribosyltransferase (P43490 whole entry): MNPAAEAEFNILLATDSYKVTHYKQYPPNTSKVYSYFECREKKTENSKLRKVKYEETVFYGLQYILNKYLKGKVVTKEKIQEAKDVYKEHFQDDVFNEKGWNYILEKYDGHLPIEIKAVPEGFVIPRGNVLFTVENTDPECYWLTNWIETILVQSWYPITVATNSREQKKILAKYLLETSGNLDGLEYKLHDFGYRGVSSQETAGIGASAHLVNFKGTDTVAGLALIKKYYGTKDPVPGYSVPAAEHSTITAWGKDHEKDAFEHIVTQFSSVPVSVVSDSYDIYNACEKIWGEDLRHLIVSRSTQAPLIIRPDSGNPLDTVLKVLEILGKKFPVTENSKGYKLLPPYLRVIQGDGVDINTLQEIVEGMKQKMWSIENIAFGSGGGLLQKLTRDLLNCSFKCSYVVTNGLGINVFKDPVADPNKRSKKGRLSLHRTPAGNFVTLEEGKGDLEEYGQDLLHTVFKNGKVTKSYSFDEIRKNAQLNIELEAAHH
Chain of Nicotinamide phosphoribosyltransferase (Mus musculus) (Q99KQ4 whole entry, looked up): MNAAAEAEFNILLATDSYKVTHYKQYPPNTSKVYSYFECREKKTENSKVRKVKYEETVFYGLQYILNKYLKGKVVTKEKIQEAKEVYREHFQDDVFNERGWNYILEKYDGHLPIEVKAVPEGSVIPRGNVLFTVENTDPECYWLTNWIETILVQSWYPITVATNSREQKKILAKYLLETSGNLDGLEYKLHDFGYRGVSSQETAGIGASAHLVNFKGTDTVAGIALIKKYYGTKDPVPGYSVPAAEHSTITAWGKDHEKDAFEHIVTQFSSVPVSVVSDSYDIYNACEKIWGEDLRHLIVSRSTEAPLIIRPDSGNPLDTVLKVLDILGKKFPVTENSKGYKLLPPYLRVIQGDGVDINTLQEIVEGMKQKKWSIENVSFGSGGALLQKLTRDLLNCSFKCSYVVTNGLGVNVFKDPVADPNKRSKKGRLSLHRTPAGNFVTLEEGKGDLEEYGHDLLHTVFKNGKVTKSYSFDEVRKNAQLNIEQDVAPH

## O=C(/C=C/c1cccnc1)OCCCCC1CCN(C(=O)c2ccccc2N(CCCl)CCCl)CC1
[1]
  IC50: 1.3 nM

## O=C(/C=C/c1cccnc1)OCCCCC1CCN(C(=O)c2ccc(N(CCCl)CCCl)cc2)CC1
[1]
  IC50: 37.5 nM

## O=C(O)CCCc1ccc(N(CCCl)CCCl)cc1 [CHLORAMBUCIL]
[2]
  IC50: > 1000 nM
[3]
  IC50: > 1000 nM
[4]
  IC50: > 1000 nM
[5]
  IC50: > 1000 nM

## O=C(/C=C/c1cccnc1)OCCCCC1CCN(C(=O)c2cccc(N(CCCl)CCCl)c2)CC1
[1]
  IC50: 3.9 nM

## O=C(/C=C/c1cccnc1)NCCCCC1CCN(C(=O)c2ccccc2N(CCCl)CCCl)CC1
[1]
  IC50: 0.16 nM
[2]
  IC50: 51.6 nM
[6]
  Activity: Active
[3]
  IC50: 31.3 nM
[4]
  IC50: 72.5 nM
[5]
  IC50: 53.8 nM

## O=C(/C=C/c1cccnc1)NCCCCC1CCN(C(=O)c2ccc(N(CCCl)CCCl)cc2)CC1
[1]
  IC50: 1.1 nM

## O=C(/C=C/c1cccnc1)NCCCCC1CCN(C(=O)c2ccccc2)CC1 [DAPORINAD]
[7]
  Activity: Active
[2]
  IC50: 33.6 nM
[3]
  IC50: 33.6 nM
[4]
  IC50: 219 nM
[8]
  Activity: Active
[5]
  IC50: 34.9 nM

## O=C(/C=C/c1cccnc1)NCCCCC1CCN(C(=O)c2cccc(N(CCCl)CCCl)c2)CC1
[9]
  inhibition: Active
[1]
  IC50: 0.15 nM
[10]
  inhibition: Active
[7]
  Activity: Active
[11]
  Activity: inactive
[12]
  inhibition: Active
[13]
  inhibition: Active
[14]
  Activity: Non-Toxic
[15]
  Activity: Non-Toxic
[16]
  Activity: Active
[17]
  Activity: Active
[18]
  Activity: Active
[19]
  Activity: inactive
[20]
  Activity: Active
[21]
  Activity: Active
[22]
  Activity: Active
[23]
  Activity: Active
[2]
  IC50: 5.1 nM
[24]
  Activity: Active
[25]
  Activity: Active
[26]
  Activity: Active
[27]
  Activity: Dose-Dependent Effect
[28]
  half-life: 56.1 s
[6]
  Activity: Active
[29]
  inhibition: Active
[30]
  Activity: Dose-Dependent Effect
[3]
  IC50: 0.7 nM
[4]
  IC50: 52.4 nM
[31]
  inhibition: Active
[8]
  Activity: Active
[32]
  Activity: Active
[5]
  IC50: 21.8 nM
[33]
  Activity: Dose-Dependent Effect
